Usually Kd stands for a measure of binding affinity in units of concentration.

Positions of bridges follow the written chain, without caps; N, C: chain ends. Non-standard residues stand in square brackets, D forms with d. Residues, ends and D or L forms follow the SMILES beside them. Triazole bridges read from a SMILES are 1,4-linked. Chains are numbered I, II in the order given. No end group written: not given here. *: point of attachment. Biotin = O=C1N[C@H]2[C@H](CS[C@H]2CCCCC(=O)*)N1; Lys(N3) = [N-]=[N+]=NCCCC[C@H](N)C(=O)O; PEG5 = NCCOCCOCCOCCOCCOCCC(=O)O; Pra = C#CC[C@H](N)C(=O)O Bounds are passed on as bounds.

For experiment [1], the system named is E17K versus WT PH Domain of Akt1 - PIP3 interaction. Description: PIP3 agarose inhibition, E17K relative to WT. It is filed as biochemical. Conditions: triligand 0.1-1000 eq.
Experiment [2] deals with Akt1^E17K relative to Akt2^E17K. Briefly: Point ELISA, Akt1 and Akt2 isoforms. It counts as binding. Conditions: 100 nM protein, triplicate. A general note: An ELISA detects its analyte on a solid surface through an enzyme-linked reagent.
A further experiment relates to WT or E17K GST-Akt1. Briefly: Point ELISA in human serum. It is filed as binding. Conditions: 150 nM protein, 0%, 1% and 2% human serum in TBS.
Experiment [3] concerns the target WT 33-mer PH Domain epitope of Akt1 (Homo sapiens, UniProt P31749). Briefly: Fluorescence polarization binding to WT 33-mer epitope. A general note: Fluorescence polarisation rises when a labelled molecule tumbles more slowly, as on binding a larger partner.
Experiment [4] addresses label-modified yleaf peptide used in fluorescence polarization. Description: fluorescence polarisation.
In a further experiment the target is full length Akt1^E17K (UniProt P31749 1-480, E17K). Description: fluorescence polarisation.
A further experiment addresses full length Akt1 (WT) (UniProt P31749 1-480). Briefly: fluorescence polarisation.

Turning to `CC[C@@H](C)[C@@H](NC(=O)CCOCCOCCOCCOCCOCCNC(=O)CCCC[C@@H]1SC[C@@H]2NC(=O)N[C@@H]21)C(=O)N[C@@H](C(=O)N[C@H](CC(=O)O)C(=O)N[C@H](C)C(=O)N[C@H](CCC(=O)O)C(=O)N[C@@H](Cc1cn(CCCC[C@H](NC(C)=O)C(=O)N[C@H](Cc2ccc(O)cc2)C(=O)N[C@H](CC(C)C)C(=O)N[C@H](CCC(=O)O)C(=O)N[C@H](C)C(=O)N[C@H](Cc2ccccc2)C(=O)N[C@@H](Cc2cn(CCCC[C@H](NC(C)=O)C(=O)N[C@H](Cc3ccc(O)cc3)C(=O)N[C@H](CCCCN)C(=O)N[C@H](CO)C(=O)N[C@H](Cc3ccc(O)cc3)C(N)=O)nn2)C(=O)O)nn1)C(=O)O)C(C)C` [triligand] (I: Ac-[Lys(N3)][dY][dL][dE][dA][dF][Pra]-OH / II: {Biotin-PEG5}-[dI][dV][dD][dA][dE][Pra]-OH / III: Ac-[Lys(N3)][dY][dK][dS][dY]-NH2; triazole I:1-II:6, I:7-III:1; C-terminus assumed), in experiment [1], the “selective inhibition of E17K relative to WT” value is “significant selective inhibition of the E17K mutant relative to the WT”. The “preference for Akt1^E17K relative to Akt2^E17K” value in experiment [2] is “slight preference for Akt1^E17K relative to the Akt2^E17K”. The “reduction in binding efficiency in human serum” value in the experiment with WT or E17K GST-Akt1 is “very little reduction in binding efficiency”.

With `CC(C)C[C@@H](NC(=O)[C@H](N)Cc1ccc(O)cc1)C(=O)N[C@H](CCC(=O)O)C(=O)N[C@H](C)C(=O)N[C@H](Cc1ccccc1)C(N)=O` [yleaf] (H-[dY][dL][dE][dA][dF]-NH2), the affinity in experiment [3], expressed as Kd, was 2800 ± 840 nM.

For “E17K mutant 6-His-tagged 33-mer PH Domain peptide fragment of Akt1 (from UniProt P31749 1-33)”, in experiment [4], the Kd worked out at 328 nM.

Consider “WT 6-His-tagged 33-mer PH Domain peptide fragment of Akt1 (from UniProt P31749 1-33)”, for which the Kd in experiment [4] was 2800 nM.

For [dY][dL][dE][dA][dF] (also: label-modified, label not given here) [label-modified yleaf peptide used in fluorescence polarization], the Kd with full length Akt1^E17K is 54 ± 7 nM; in the experiment with full length Akt1 (WT), more than 1000 nM.

Values taken from publication PMC4408887 (Nature chemistry, 2015).
